Results reported in patent US20250325684A1, “POTENT ANTI-CANCER CYCLOTIDES” (University of Southern California, priority 2022, published 2025).
Numbered stars: 1 amine (or outer) side, 2 acyl side, 3 side chain; on linkers, the order of the positions; unused ones are H or OH. Bridge positions count the residues as written; N and C are the ends. Square brackets hold non-standard residues; d marks the D form. Peptide text beside a SMILES is read from it. I, II: the chains in the order shown. X1 = O=C(CCc1cn(CCOCCOCCOCCC(=O)[*:2])nn1)[*:1]; isoGln = NC(=O)[C@H](CCC(=O)[*:2])N[*:1]

Assays:
[1] = system: NCl-H1395; experiment: MTT cell viability, NCl-H1395 cells; format: cell-based, human; details: NCl-H1395 lung adenocarcinoma, p53 WT
Experimental: (§1) Cell viability assay in several human cancer cell lines (See Tables 1 to 10). Cell lines were cultured in RPMI 1640 (or recommended medium when indicated) medium supplemented with 10% fetal calf serum, penicillin (50 IU/mL) and streptomycin ([…]) at 37° C. in 5% CO2. Cell viability studies was carried using the MTT (3-(4,5-dimethylthiazol-2-yl)-2,5-diphenyltetrazolium bromide) assay as previously described (31). Briefly, ≈2×10^3 CRC cells were be seeded in 96-well microtiter plates in 100 μL RPMI 1640 in the presence of 10% calf serum. […] After 1 h, 210 μL/well of full complemented media was added, the cells were grown for 48 h and then treated with 20 μL of a solution of MTT (5 mg/mL) for 2 h. The medium was discarded and DMSO ([…]) was added to each well and incubated with gentle shaking for 20 min at room temperature. The absorbance at 595 nm of the solution is analyzed using a Tecan Genios Multifunctional Microplate Reader (Tecan System Inc) and the background at 670 nm subtracted. RNA-Seq analysis was performed using state-of-the-art bioinformatics tools. Briefly, raw RNA-Seq reads were mapped to human genome (hg38) using STAR aligner (v2.7.3a). Gencode Release 36 reference was used for annotation. Transcript and gene expression levels were quantified using the IsoEM (37) with default parameters. […]
(§2) Cell viability was evaluated using the MTT assay as described above.

[2] = system: NCl-H2347; experiment: MTT cell viability, NCl-H2347 cells; format: cell-based, human; details: NCl-H2347 lung adenocarcinoma, p53 Mutant
Experimental: as §1, §2

[3] = system: LNCaP; experiment: MTT cell viability, LNCaP cells; format: cell-based; details: LNCaP prostate carcinoma, p53 WT, read-out: Cell viability, Human Prostate Cancer Cells
Experimental: (§3) Cell viability assay in several human cancer cell lines (See Tables 1 to 10). Cell lines were cultured in RPMI 1640 (or recommended medium when indicated) medium supplemented with 10% fetal calf serum, penicillin (50 IU/mL) and streptomycin ([…]) at 37° C. in 5% CO2. Cell viability studies was carried using the MTT (3-(4,5-dimethylthiazol-2-yl)-2,5-diphenyltetrazolium bromide) assay as previously described (31). Briefly, ≈2×10^3 CRC cells were be seeded in 96-well microtiter plates in 100 μL RPMI 1640 in the presence of 10% calf serum. After 24 h incubation the cells were washed with PBS and treated with 30 μL/well of PBS or RPMI 1640 (or recommended) media containing cyclotides MCo-52, MCoTI-I (used as negative control), nutlin-3a (used as positive control) or MI-77301 (used as positive control for p53-mutated or p53-null cells) at the indicated doses for 1 h at 37° C. in 5% CO2. After 1 h, 210 μL/well of full complemented media was added, the cells were grown for 48 h and then treated with 20 μL of a solution of MTT (5 mg/mL) for 2 h. The medium was discarded and DMSO ([…]) was added to each well and incubated with gentle shaking for 20 min at room temperature. The absorbance at 595 nm of the solution is analyzed using a Tecan Genios Multifunctional Microplate Reader (Tecan System Inc) and the background at 670 nm subtracted. RNA-Seq analysis was performed using state-of-the-art bioinformatics tools. Briefly, raw RNA-Seq reads were mapped to human genome (hg38) using STAR aligner (v2.7.3a). Gencode Release 36 reference was used for annotation. Transcript and gene expression levels were quantified using the IsoEM (37) with default parameters. Counts per million (CPM) method is used for normalization. Differential expression was done using DESeq2 with default parameters. Genes involved in different biological pathways (human) were searched from Geneontology (http://geneontology.org/). Bioinformatics results can be validated by using Partek Flow (v10.0.21.0912), a bioinformatics pipeline developed by Zymo Research (https://www.zymoresearch.com/).
(§4) Tables 1 through 10 show in vitro activity of cyclotide MCo-52-2-cTAT against different human cancer cell lines, some with null-, mutated, or wildtype p53 phenotypes. Cell viability was evaluated using the MTT assay as described above.

[4] = system: LLC-1; experiment: MTT cell viability, LLC-1 cells; format: cell-based; details: LLC-1 murine lung cancer, p53 WT
Experimental: as §1, §2

[5] = system: HPAF-II; experiment: MTT cell viability, HPAF-II cells; format: cell-based, human; details: HPAF-II pancreatic ductal adenocarcinoma, p53 Mutant
Experimental: as §3, with “After 24 h incubation the cells were washed with PBS and treated with 30 μL/well of PBS or RPMI 1640 (or recommended) media containing cyclotides MCo-52, MCoTI-I (used as negative control), nutlin-3a (used as positive control) or MI-77301 (used as positive control for p53-mutated or p53-null cells) at the indicated doses for 1 h at 37° C. in 5% CO2.” left out
as §2

[6] = system: Jurkat; experiment: MTT cell viability, Jurkat cells; format: cell-based, human; details: Jurkat childhood T acute lymphoblastic leukemia, p53 Mutant
Experimental: as §3, with “After 24 h incubation the cells were washed with PBS and treated with 30 μL/well of PBS or RPMI 1640 (or recommended) media containing cyclotides MCo-52, MCoTI-I (used as negative control), nutlin-3a (used as positive control) or MI-77301 (used as positive control for p53-mutated or p53-null cells) at the indicated doses for 1 h at 37° C. in 5% CO2.” left out
as §2

[7] = system: NCl-H1299; experiment: MTT cell viability, NCl-H1299 cells; format: cell-based, human; details: NCl-H1299 lung large cell carcinoma, p53 Null
Experimental: as §3, with “After 24 h incubation the cells were washed with PBS and treated with 30 μL/well of PBS or RPMI 1640 (or recommended) media containing cyclotides MCo-52, MCoTI-I (used as negative control), nutlin-3a (used as positive control) or MI-77301 (used as positive control for p53-mutated or p53-null cells) at the indicated doses for 1 h at 37° C. in 5% CO2.” left out
as §2

[8] = system: NCl-H522; experiment: MTT cell viability, NCl-H522 cells; format: cell-based, human; details: NCl-H522 lung adenocarcinoma, p53 Mutant (Deletion)
Experimental: as §3, with “After 24 h incubation the cells were washed with PBS and treated with 30 μL/well of PBS or RPMI 1640 (or recommended) media containing cyclotides MCo-52, MCoTI-I (used as negative control), nutlin-3a (used as positive control) or MI-77301 (used as positive control for p53-mutated or p53-null cells) at the indicated doses for 1 h at 37° C. in 5% CO2.” left out
as §2

[9] = system: NCl-H1975; experiment: MTT cell viability, NCl-H1975 cells; format: cell-based, human; details: NCl-H1975 lung adenocarcinoma, p53 Mutant
Experimental: as §1, §2

[10] = system: NCl-H526; experiment: MTT cell viability, NCl-H526 cells; format: cell-based, human; details: NCl-H526 lung small cell carcinoma, p53 Null
Experimental: as §3, with “After 24 h incubation the cells were washed with PBS and treated with 30 μL/well of PBS or RPMI 1640 (or recommended) media containing cyclotides MCo-52, MCoTI-I (used as negative control), nutlin-3a (used as positive control) or MI-77301 (used as positive control for p53-mutated or p53-null cells) at the indicated doses for 1 h at 37° C. in 5% CO2.” left out
as §2

[11] = system: 4T1; experiment: MTT cell viability, 4T1 cells; format: cell-based; details: 4T1 murine breast cancer, p53 WT
Experimental: as §1, §2

[12] = system: AsPC-1; experiment: MTT cell viability, AsPC-1 cells; format: cell-based, human; details: AsPC-1 pancreatic ductal adenocarcinoma, p53 Mutant
Experimental: as §3, with “After 24 h incubation the cells were washed with PBS and treated with 30 μL/well of PBS or RPMI 1640 (or recommended) media containing cyclotides MCo-52, MCoTI-I (used as negative control), nutlin-3a (used as positive control) or MI-77301 (used as positive control for p53-mutated or p53-null cells) at the indicated doses for 1 h at 37° C. in 5% CO2.” left out
as §2

[13] = system: NCl-H1944; experiment: MTT cell viability, NCl-H1944 cells; format: cell-based, human; details: NCl-H1944 lung adenocarcinoma, p53 WT
Experimental: as §1, §2

[14] = system: HL-60; experiment: MTT cell viability, HL-60 cells; format: cell-based, human; details: HL-60 adult acute myeloid leukemia, p53 Null
Experimental: as §1, §2

[15] = system: A2780; experiment: MTT cell viability, A2780 ovarian cells; format: cell-based, human; details: p53 WT
Experimental: as §3, §4

[16] = system: U937; experiment: MTT cell viability, U937 cells; format: cell-based, human; details: U937 adult acute monocytic leukemia, p53 Mutant
Experimental: as §3, with “After 24 h incubation the cells were washed with PBS and treated with 30 μL/well of PBS or RPMI 1640 (or recommended) media containing cyclotides MCo-52, MCoTI-I (used as negative control), nutlin-3a (used as positive control) or MI-77301 (used as positive control for p53-mutated or p53-null cells) at the indicated doses for 1 h at 37° C. in 5% CO2.” left out
as §2

[17] = system: HCT116^+/+; experiment: MTT cell viability, HCT116 p53 wild-type cells; format: cell-based, human; details: HCT116^+/+ colon carcinoma, p53 WT; MTT; read-out: EC50
Experimental: as §3, with “After 24 h incubation the cells were washed with PBS and treated with 30 μL/well of PBS or RPMI 1640 (or recommended) media containing cyclotides MCo-52, MCoTI-I (used as negative control), nutlin-3a (used as positive control) or MI-77301 (used as positive control for p53-mutated or p53-null cells) at the indicated doses for 1 h at 37° C. in 5% CO2.” left out
as §2

Row | Compound | EC50 [1] | EC50 [2] | EC50 [3] | EC50 [4] | EC50 [5] | EC50 [6] | EC50 [7] | EC50 [8] | EC50 [9] | EC50 [10] | EC50 [11] | EC50 [12] | EC50 [13] | EC50 [14] | EC50 [15] | EC50 [16] | EC50 [17]
1 | COc1ccc(C2=N[C@@H](c3ccc(Cl)cc3)[C@@H](c3ccc(Cl)cc3)N2C(=O)N2CCNC(=O)C2)c(OC(C)C)c1 [Nutlin 3A] | 23.1 ± 5.6 µM | 25.3 ± 5.5 µM | 19.7 ± 1.3 µM | 9.4 ± 1.2 µM | > 50 µM | 45.2 ± 2.4 µM | > 100 µM | > 50 µM | > 100 µM | > 100 µM | 28.5 ± 8.6 µM | > 100 µM | 22.1 µM | 33.3 ± 4.4 µM | 9.3 ± 0.5 µM | > 50 µM | 
2 | N=C(N)NCCC[C@@H]1NC(=O)[C@@H](CCCNC(=N)N)NC(=O)[C@H](CCCCN)NC(=O)[C@@H](N)CCCCNC(=O)CC[C@@H](C(=O)O)NC(=O)[C@@H](CCCNC(=N)N)NC(=O)[C@H](CCCNC(=N)N)NC(=O)[C@@H](CCCCN)NC(=O)[C@H](CCCCN)NC(=O)[C@@H](CCCNC(=N)N)NC(=O)CNC(=O)[C@@H](CCCNC(=N)N)NC1=O [cTAT] (H-KK[dR]R[dR]G[dR]K[dK]R[dR]E-OH; lactam 1-12; N-terminus and C-terminus assumed) | > 100 µM | > 100 µM | > 100 µM | > 100 µM | > 100 µM | > 100 µM | > 100 µM | > 100 µM | > 100 µM | > 100 µM | > 100 µM | > 100 µM | > 100 µM | > 100 µM | > 100 µM | > 100 µM | > 100 µM
3 | I: cyclo(ACICRHDSYCGSGSDGGVCPNLYLLCRRDKDCPG) / II: KK[dR]R[dR]G[dR]K[dK]R[dR][isoGln] (disulfide I:2-I:19, I:4-I:26, I:10-I:32; linker I:30-II:N via X1; lactam II:1-II:C) [Cyclotide 52-2-cTAT] |  |  | 6.3 ± 1.1 µM |  | 14.6 ± 1.8 µM |  |  |  |  |  |  | 11.5 ± 1.5 µM |  |  | 9.7 ± 0.5 µM |  | 10.9 ± 1.3 µM
